According to patent publication US9540343B2 (Gilead Sciences, Inc., priority 2011, dated 2017):

Columns and labels:
MT-4 cells = test: in vitro; settings: uninfected MT-4 cells, same protocol as Test A, 5 days, CellTiter-Glo
Outline: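 Cytoprotection read-out: CellTiter-Glo chemiluminescence after 5 days at 37 °C of HIV-IIIb-infected MT-4 cells (m.o.i. 0.003) with compound in 10-point 3-fold dilutions, quadruplicate, 10% FBS. Cytotoxicity (CC50) measured identically without virus.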

HIV-IIIb = test: Test A: Antiviral assay in MT4 cells; assay type: cell-based, HIV-1; settings: percent inhibition of virus-induced cell killing, from dose response curve at 2 uM drug; MT-4 cells infected with HIV-IIIb, 5 days, CellTiter-Glo

Molecule | CC50 (MT-4 cells) | % inhibition at 2 μM (HIV-IIIb)
CCC(C(=O)N[C@@H](Cc1cc(F)cc(F)c1)c1ncccc1-c1ccc(F)c(C(N)=O)c1)n1ccnc1C(C)C (single isomer, unassigned) [Example 586] | > 53.2 µM | 1%
CN(C)C(C(=O)N[C@@H](Cc1cc(F)cc(F)c1)c1ncccc1-c1ccc(F)c(C(N)=O)c1)c1ccc(F)cc1 (single isomer, unassigned) [Example 590] | 38.6 µM | 13%
CC12CCC(c3c(C(F)(F)F)nn(CC(=O)N[C@@H](Cc4cc(F)cc(F)c4)c4ncccc4-c4ccc(F)c(C(N)=O)c4)c31)C2(C)C (stereo partly drawn) [Example 93B, (S)-5-(2-(2-(3,5-difluorophenyl)-1-(2-(D-4,5,6,7-Tetrahydro-3-trifluoromethyl-7,8,8-trimethyl-1H-4,7-(methano)indazol-1-yl)acetamido)ethyl)pyridin-3-yl)-2-fluorobenzamide] | 8.14 µM | 0%
NC(=O)c1cc(-c2cccnc2[C@H](Cc2cc(F)cc(F)c2)NC(=O)Cn2nc(C(F)(F)F)c3c2C(O)C2CC32)ccc1F (stereo partly drawn) [Example 155, 5-(2-((1S)-2-(3,5-difluorophenyl)-1-(2-(5-hydroxy-3-(trifluoromethyl)-3b,4,4a,5-tetrahydro-1H-cyclopropa[3,4]cyclopenta[1,2-c]pyrazol-1-yl)acetamido)ethyl)pyridin-3-yl)-2-fluorobenzamide] | 37 µM | 97%
NC(=O)c1cc(-c2cccnc2[C@H](Cc2cc(F)cc(F)c2)NC(=O)Cn2nc(C(F)(F)F)c3c2C(O)C2CC32)ccc1F (stereo partly drawn) [Example 156, 5-(2-((1S)-2-(3,5-difluorophenyl)-1-(2-(5-hydroxy-3-(trifluoromethyl)-3b,4,4a,5-tetrahydro-1H-cyclopropa[3,4]cyclopenta[1,2-c]pyrazol-1-yl)acetamido)ethyl)pyridin-3-yl)-2-fluorobenzamide] | 39.2 µM | 30%
NC(=O)c1cc(-c2cccnc2[C@H](Cc2cc(F)cc(F)c2)NC(=O)Cn2nc(C(F)F)c3c2C2CC2C3)ccc1F (stereo partly drawn) [Example 163C, 5-(2-((1S)-1-(2-(3-(difluoromethyl)-4,4-a,5,5a-tetrahydro-1H-cyclopropa[4,5]cyclopenta[1,2-c]pyrazol-1-yl)acetamido)-2-(3,5-difluorophenyl)ethyl)pyridin-3-yl)-2-fluorobenzamide] | 27.4 µM | 105%
NC(=O)c1cccc(-c2cccnc2[C@H](Cc2cc(F)cc(F)c2)NC(=O)CC2C(=O)Nc3ccccc32)c1 (stereo partly drawn) [Example 192, 3-(2-((1S)-2-(3,5-difluorophenyl)-1-(2-(2-oxoindolin-3-yl)acetamido)ethyl)pyridin-3-yl)benzamide] | 47.6 µM | 2%
Cc1cc(-c2cccnc2[C@H](Cc2cc(F)cc(F)c2)NC(=O)Cc2c[nH]c3ccc(F)cc23)cnc1F [Example 399] | 12.8 µM | 31%
CC(C)CC(=O)NS(=O)(=O)c1ccc(-c2cccnc2C(Cc2cc(F)cc(F)c2)NC(=O)Cn2nc(C(F)F)c3c2C(F)(F)C2C[C@H]32)cc1 (stereo partly drawn) [Example 427, (S)—N-(1-(3-(4-(N-(3-methylbutanoyl)sulfamoyl)phenyl)-pyridin-2-yl)-2-(3,5-difluorophenyl)ethyl)-2-(3-(difluoromethyl)-5,6-dihydro-4,5-(methano)-6,6-difluoro-cyclopenta[c]pyrazol-1(4H)-yl)acetamide] | 32.8 µM | 0%
CNS(=O)(=O)c1ccc(-c2cccnc2C(Cc2cc(F)cc(F)c2)NC(=O)Cn2nc(C(F)F)c3c2C(F)(F)C2C[C@H]32)cc1 (stereo partly drawn) [Example 429, (S)—N-(1-(3-(4-(N-methylsulfamoyl)phenyl)-pyridin-2-yl)-2-(3,5-difluorophenyl)ethyl)-2-(3-(difluoromethyl)-5,6-dihydro-4,5-(methano)-6,6-difluoro-cyclopenta[c]pyrazol-1(4H)-yl)acetamide] | 41.6 µM | 57%
CCC(C(=O)N[C@@H](Cc1cc(F)cc(F)c1)c1ncccc1-c1ccc(F)c(C(N)=O)c1)n1cc(C(C)=O)c2ccccc21 (stereo partly drawn) [Example 544, 5-(2-((1S)-1-(2-(3-acetyl-1H-indol-1-yl)butanamido)-2-(3,5-difluorophenyl)ethyl)pyridin-3-yl)-2-fluorobenzamide] | > 53.2 µM | 75%
CCC(C(=O)N[C@@H](Cc1cc(F)cc(F)c1)c1ncccc1-c1ccc(F)c(C(N)=O)c1)n1cc(C(C)=O)c2ccccc21 (stereo partly drawn) [Example 554, 5-(2-((1S)-1-(2-(3-acetyl-1H-indol-1-yl)butanamido)-2-(3,5-difluorophenyl)ethyl)pyridin-3-yl)-2-fluorobenzamide] | 48.9 µM | 63%
(S)-5-(2-(1-(2-(5-(difluoromethyl)-3-phenyl-1H-pyrazol-1-yl)acetamido)-2-(3,5-difluorophenyl)ethyl)pyridin-3-yl)-2-fluorobenzamide [Example 240C] | 34.9 µM | 0%
(S)—N-(1-(3-(4-(pyrrolidinylcarbonylamino)phenyl)-pyridin-2-yl)-2-(3,5-difluorophenyl)ethyl)-2-(3-(difluoromethyl)-5,6-dihydro-4,5-(methano)-6,6-difluoro-cyclopenta[c]pyrazol-1(4H)-yl)acetamide [Example 80] | > 53.2 µM | 0%
